Measured values from patent publication US4120947A, “Xanthine compounds and method of treating bronchospastic and allergic diseases” (priority 1976, dated 1978).
“Also recorded” adds a separate entry of the source. Like-named read-outs stand apart in the source and are kept apart here.

Experiments:
LD50 mouse = format: in vivo; details: in vivo, po
Description: (§1) The LD50 was determined in three species, the mouse (male, 18-25 g), the albino rat (female, 150-200 g) and the albino guinea pig (male 180-280 g) by oral administration and in the albino rat by intraperitoneal administration. The animals are fasted overnight prior to testing. Six groups of ten animals are used; five groups are dosed with the test substance, the sixth group serves as a control and receives the drug vehicle at the highest test concentration. The compounds were administered in a 0.5% gum tragacanth solution in distilled water using a constant logarithmic increment in dose. Dose volume ranged from […].
(§2) The animals were housed five per cage (rat and guinea pig) or ten per cage (mouse) with free access to food and water. The number of dead animals was recorded daily for five consecutive days. The total mortality per group of ten for each dose level was recorded and LD50 with Confidence Limits calculated according to the method described by Weil, C.

mouse = assay: LD50 mouse; format: in vivo
Description: as §1, §2

[1] = test system: histamine-induced bronchoconstriction in the guinea pig; assay: BD: bronchodilator activity against histamine-induced bronchoconstriction in the guinea pig; details: for inhibition in vivo at 10 mg/kg / inhibition in vivo at 20 mg/kg: Cavia porcellus, po, read-out: BD (guinea pig), % protection
Text: BD Bronchodilator activity evaluated against histamine-induced bronchoconstriction in the guinea pig, and expressed as % protection at the stated time interval (in minutes and hours) post-drug against histamine agonist. Doses are expressed in milligrams per kilogram of body weight (mpk) per os (po) or intraperitoneally (ip).
A modification of the method of Siegmund. O.H., et al., J. Pharmacol. and Exp. Therap. 90:254-9, 1947, is used. Healthy guinea pigs weighing from 250 to 300 grams are placed four at a time and separated by wiring screening in an 11 liter plastic chamber, at the time of peak activity following drug administration. The challenge consists of histamine diphosphate (1% solution) aerosolized in a de Vilbiss -40 nebulizer at 200 mm Hg. Times for prostration are recorded.
Per cent protection is calculated as follows: [formula] wherein the times are measured in seconds.
In interpreting the BD data it should be noted that a dose giving less than 40-50% protection is not considered useful. Differences in percent protection of less than 10% are probably not significant.

[2] = test system: guinea pig tracheal chain preparation; assay: SP: spasmolytic activity in vitro, guinea pig tracheal chain preparation; details: Cavia porcellus, read-out: SP in vitro C, molar concentration required to produce maximum relaxation
Text: SP Spasmolytic activity evaluated in vitro using guinea pig tracheal chain preparation, and expressed as the molar (M) concentration required to produce maximum relaxation. The method used in that of Castillo and de Beer, J. Pharmac. Expt. Therap. 90, 104, 1947.

[3] = test system: antigen-induced bronchconstriction in rats sensitized with N. brasliensis; assay: AA: antiallergy (anti-anaphylactic) activity against antigen-induced bronchoconstriction in sensitized rats
Description: The animals are subdivided into control and test groups. Test animals receive a drug either orally, intraperitoneally or intravenously and are challenged with intravenous antigen at fixed time intervals after dosing. Antigen-induced increases in tracheal pressure are monitored and reflect the extent of bronchoconstriction.

[4] = test system: passive cutaneous anaphylaxis in the rat; assay: PCA: passive cutaneous anaphylaxis in the rat; format: in vivo
Description: PCA Antianaphylactic activity against passive cutaneous anaphylaxis in the rat, expressed as % protection against antigen-induced wheal formation.
The method used is that of Ogilvie, B. M., Immunology 12, 113-131 (1967). Reaginic […] antibodies develope in the rat following subcutaneous injection of Nippostrongylus brasiliensis larvae. Antisera, collected 28 days later are injected subcutaneously into new rats.

in vivo = assay: in vivo
Description: as §1, §2

albino rat = assay: in vivo
Description: as §1, §2

[5] = test system: histamine-induced bronchoconstriction in the dog; assay: CP: cardiopulmonary activity against histamine-induced bronchoconstriction in the dog; format: in vivo; details: histamine challenge
Text: Pretreatment with bronchodilator drugs aims to block the bronchospastic response to histamine. Each dog serves as its own control.

[6] = guinea pig, comparison with corresponding compound
[7] = Rattus norvegicus, ip, 1 h, read-out: AA (rat), % protection
[8] = Rattus norvegicus, po, 1 h, read-out: AA (rat), % protection

SMILES: CCC(C)Cn1c(=O)n(C)c(=O)c2c1nc(C)n2C(=O)OC (stereo not shown) [Compound 4387, 1,8-dimethyl-3-(2-methyl-1-butyl)-7-carbomethoxyxanthine]
- LD50 (LD50 mouse): 54.9 mg/kg
- lethality relative to 4390 (mouse): about one-half
- inhibition in vivo at 10 mg/kg ([1]; 0.5 h): 44%
- inhibition in vivo at 10 mg/kg ([1]; 1 h): 87%
- inhibition in vivo at 20 mg/kg ([1]; 1 h): 94%
- inhibition in vivo at 10 mg/kg ([1]; 6 h): 59%
- inhibition in vivo at 20 mg/kg ([1]; 6 h): 92%
- inhibition in vivo at 10 mg/kg ([1]; 10 h): 37%
- bronchodilator effectiveness, in words [1, 6]: shows greater activity; also recorded: about as effective as the corresponding 3-isobutyl compound (4390)
- onset and duration of action, in words [1, 6]: effective at lower doses and for longer duration
- EC (maximum relaxation) [2]: 1000 µM
- inhibition in vivo at 5 mg/kg [3, 7]: 55%
- inhibition in vivo at 75 mg/kg [3, 7]: 70%
- inhibition in vivo at 2.5 mg/kg [3, 8]: 72%
- inhibition in vivo at 5 mg/kg [3, 8]: 68%
- inhibition in vivo at 10 mg/kg [3, 8]: 57%
- antiallergy effectiveness, in words ([3]; rat, comparison with 4390): about as effective as the corresponding 3-isobutyl compound (4390)
- Wheal Diameter, % Δ ([4]; 10 mg/kg po): 41%
- Wheal Diameter, Response (Mean ± S.E.M.) ([4]; 10 mg/kg po): 1.41 ± 0.17 cm
- Wheal Intensity, % Δ ([4]; 10 mg/kg po): 33%
- Wheal Intensity, Response (Mean ± S.E.M.) ([4]; 10 mg/kg po): 1.65 ± 0.20
- Wheal Diameter, % Δ ([4]; 20 mg/kg po): 57%
- Wheal Diameter, Response (Mean ± S.E.M.) ([4]; 20 mg/kg po): 0.81 ± 0.13 cm
- Wheal Intensity, % Δ ([4]; 20 mg/kg po): 38%
- Wheal Intensity, Response (Mean ± S.E.M.) ([4]; 20 mg/kg po): 1.18 ± 0.21
- antiallergy activity, in words ([4]; rat passive cutaneous anaphylaxis): effective antiallergy agents
- LD50 (in vivo; guinea pig, po): 27.4 mg/kg
- LD50 (in vivo; in vivo, rat, ip): 18.3 mg/kg
- LD50 (in vivo; in vivo, rat, po): 60 mg/kg
- lethality relative to 4390 (albino rat): about one-half
- cardiopulmonary / bronchodilator activity in the dog, in words [5]: significantly reduce the decrease in pulmonary compliance and increase in pulmonary resistance due to histamine administration; also recorded: about as effective as the corresponding 3-isobutyl compound (4390)
